Measured values as given in US10316049B2, “Tank-binding kinase inhibitor compounds” (Gilead Sciences, Inc., priority 2015, dated 2019).

Experiments:
[1] = target: T1, TBK1 (Homo sapiens, UniProt Q9UHD2); experiment: TR-FRET enzymatic activity assay, TBK1; type: biochemical; note: full length recombinant TBK1 at 2.5 nM
T1 construct: TBK1 and IKKε were expressed and purified as full length recombinant proteins; made in house
T1 sequence (Q9UHD2 1-729): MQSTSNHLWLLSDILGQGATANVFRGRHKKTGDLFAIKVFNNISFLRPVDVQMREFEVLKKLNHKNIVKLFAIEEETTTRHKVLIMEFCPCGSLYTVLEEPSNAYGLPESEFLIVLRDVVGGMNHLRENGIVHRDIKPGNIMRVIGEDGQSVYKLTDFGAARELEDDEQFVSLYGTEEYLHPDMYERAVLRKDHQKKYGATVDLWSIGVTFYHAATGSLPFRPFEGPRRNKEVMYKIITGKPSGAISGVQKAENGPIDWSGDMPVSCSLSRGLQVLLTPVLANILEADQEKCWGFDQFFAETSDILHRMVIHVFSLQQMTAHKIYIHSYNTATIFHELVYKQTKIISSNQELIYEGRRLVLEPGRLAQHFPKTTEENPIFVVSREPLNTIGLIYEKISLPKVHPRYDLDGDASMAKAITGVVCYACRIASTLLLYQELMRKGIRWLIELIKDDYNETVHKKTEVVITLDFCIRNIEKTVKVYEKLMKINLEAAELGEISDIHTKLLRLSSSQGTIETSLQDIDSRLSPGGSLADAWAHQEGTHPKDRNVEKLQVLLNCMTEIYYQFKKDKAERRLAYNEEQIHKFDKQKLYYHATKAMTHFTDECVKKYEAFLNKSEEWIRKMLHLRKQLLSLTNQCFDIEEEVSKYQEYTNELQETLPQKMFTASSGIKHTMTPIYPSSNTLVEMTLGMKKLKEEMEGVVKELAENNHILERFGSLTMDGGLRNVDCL
Method in brief: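 TR-FRET detected phosphorylation of a biotinylated serine/threonine peptide using 125 nM streptavidin XL665 plus europium-labelled anti-phospho antibody. Reactions with full-length recombinant kinase ran 240 min at 25 °C before EDTA quench. Values are geometric-mean IC50s (n ≥ 4) from four-parameter dose-response fits against staurosporine and DMSO controls.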

[2] = target: T2, IKKε (Homo sapiens, UniProt Q14164); experiment: TR-FRET enzymatic activity assay, IKKε; type: biochemical; settings: read-out: IKKϵ IC50; note: full length recombinant IKKε at 0.3 nM
T2 construct: TBK1 and IKKε were expressed and purified as full length recombinant proteins; made in house
T2 sequence (Q14164 1-716): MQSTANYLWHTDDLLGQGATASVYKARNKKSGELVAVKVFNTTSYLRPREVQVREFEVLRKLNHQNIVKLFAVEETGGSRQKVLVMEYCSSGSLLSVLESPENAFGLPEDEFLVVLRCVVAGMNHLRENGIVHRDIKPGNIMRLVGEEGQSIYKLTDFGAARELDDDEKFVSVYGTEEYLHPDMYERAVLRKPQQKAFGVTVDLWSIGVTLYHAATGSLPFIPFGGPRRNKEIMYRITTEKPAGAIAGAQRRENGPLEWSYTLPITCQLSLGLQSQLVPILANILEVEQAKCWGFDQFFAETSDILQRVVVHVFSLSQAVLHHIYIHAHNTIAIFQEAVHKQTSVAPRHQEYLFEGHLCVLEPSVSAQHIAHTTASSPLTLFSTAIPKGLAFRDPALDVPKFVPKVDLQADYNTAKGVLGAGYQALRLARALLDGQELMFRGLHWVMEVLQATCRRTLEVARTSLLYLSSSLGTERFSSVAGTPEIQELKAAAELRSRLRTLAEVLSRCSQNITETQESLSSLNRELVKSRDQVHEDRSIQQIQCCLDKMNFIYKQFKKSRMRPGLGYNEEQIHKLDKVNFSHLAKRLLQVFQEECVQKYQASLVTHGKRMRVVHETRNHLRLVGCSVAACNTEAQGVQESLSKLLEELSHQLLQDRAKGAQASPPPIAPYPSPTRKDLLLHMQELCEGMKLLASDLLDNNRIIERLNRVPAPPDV
Method in brief: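 IC50 values are geometric means of at least four determinations, fitted to a four-parameter curve after normalising to 1 μM staurosporine and DMSO. Signal: Eu-cryptate anti-phospho antibody plus 125 nM streptavidin-XL665 on a biotinylated peptide. Full-length recombinant enzyme reacted 240 min, 25 °C, then EDTA-quenched.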

IC50 [1]	IC50 [2]	Structure (SMILES)
47.9 nM	53.3 nM	COC(=O)[C@@H]1C[C@H]1C(=O)Nc1cc(-c2ccc(O[C@H]3CCN(C(=O)CO)C[C@H]3F)c(C#N)c2)ccn1 (relative stereo) [Example 83, Methyl (1,2-trans)-2-((4-(3-cyano-4-(((3R,4S)-3-fluoro-1-(2-hydroxyacetyl)piperidin-4-yl)oxy)phenyl)pyridin-2-yl)carbamoyl)cyclopropane-1-carboxylate]
16.1 nM	30.8 nM	Cn1cc([C@@H]2C[C@H]2C(=O)Nc2cc(-c3ccc(O[C@H]4CCN(C(=O)[C@@H](O)CO)C[C@H]4F)c(C#N)c3)ncn2)cn1 [Example 146, (1,2-Trans)-N-(6-(3-cyano-4-(((3R,4S)-1-((S)-2,3-dihydroxypropanoyl)-3-fluoropiperidin-4-yl)oxy)phenyl)pyrimidin-4-yl)-2-(1-methyl-1H-pyrazol-4-yl)cyclopropane-1-carboxamide]
6.1 nM	31.3 nM	N#Cc1cc(-c2cc(NC(=O)C3CC3)ncn2)ccc1O[C@H]1CCN(C(=O)[C@@H](O)CO)C[C@H]1F [Example 21, N-(6-(3-cyano-4-(((3R,4S)-1-((S)-2,3-dihydroxypropanoyl)-3-fluoropiperidin-4-yl)oxy)phenyl)pyrimidin-4-yl)cyclopropanecarboxamide]
36.6 nM	41 nM	Cc1nnc([C@@H]2C[C@H]2C(=O)Nc2cc(-c3ccc(O[C@H]4CCN(C(=O)CO)C[C@H]4F)c(C#N)c3)ccn2)o1 [Example 156, Trans-N-(4-(3-cyano-4-(((3R,4S)-3-fluoro-1-(2-hydroxyacetyl)piperidin-4-yl)oxy)phenyl)pyridin-2-yl)-2-(5-methyl-1,3,4-oxadiazol-2-yl)cyclopropane-1-carboxamide]
628 nM	316 nM	N#Cc1cc(-c2ccnc(NC(=O)[C@H]3[C@@H]4CNC[C@@H]43)c2)ccc1OC1CCOCC1 [Example 124, (1R,5S,6R-rel)-N-(4-(3-cyano-4-((tetrahydro-2H-pyran-4-yl)oxy)phenyl)pyridin-2-yl)-3-azabicyclo[3.1.0]hexane-6-carboxamide]
4.4 nM	4.7 nM	N#Cc1cc(-c2ccnc(NC(=O)C3CC3)c2)ccc1O[C@H]1CCN(C(=O)[C@@H](O)CO)CC1(F)F [Example 157, N-(4-(3-cyano-4-(((S)-1-((S)-2,3-dihydroxypropanoyl)-3,3-difluoropiperidin-4-yl)oxy)phenyl)pyridin-2-yl)cyclopropanecarboxamide]
20.3 nM	130 nM	N#Cc1cc(-c2ccnc(NC(=O)[C@H]3C[C@@H]3c3cccnc3)c2)ccc1OC1CCOCC1 (relative stereo) [Example 100, (1,2-trans)-N-(4-(3-cyano-4-((tetrahydro-2H-pyran-4-yl)oxy)phenyl)pyridin-2-yl)-2-(pyridin-3-yl)cyclopropane-1-carboxamide]
762 nM	> 1000 nM	N#Cc1cc(-c2cc(NC(=O)C3CC3)ncn2)ccc1C(=O)NCC(F)F [Example 53, 2-cyano-4-(6-(cyclopropanecarboxamido)pyrimidin-4-yl)-N-(2,2-difluoroethyl)benzamide]
33.3 nM	192 nM	N#Cc1cc(-c2ccnc(NC(=O)[C@@H]3C[C@H]3C3OCCO3)c2)ccc1OC1CCOCC1 (relative stereo) [Example 44, (1,2-trans)-N-(4-(3-cyano-4-((tetrahydro-2H-pyran-4-yl)oxy)phenyl)pyridin-2-yl)-2-(1,3-dioxolan-2-yl)cyclopropane-1-carboxamide]
10.3 nM	24.7 nM	Cn1cc(C2CC2C(=O)Nc2cc(-c3ccc(O[C@H]4CCN(C(=O)CO)C[C@H]4F)c(C#N)c3)ccn2)cn1 (stereo partly drawn) [Example 77, N-(4-(3-cyano-4-(((3R,4S)-3-fluoro-1-(2-hydroxyacetyl)piperidin-4-yl)oxy)phenyl)pyridin-2-yl)-2-(1-methyl-1H-pyrazol-4-yl)cyclopropane-1-carboxamide]
258 nM	> 1000 nM	N#Cc1cc(-c2ccnc(NC(=O)C3CC3)c2)ccc1N1CCC[C@@H]1C(N)=O [Example 95, (R)-1-(2-cyano-4-(2-(cyclopropanecarboxamido)pyridin-4-yl)phenyl)pyrrolidine-2-carboxamide]
400 nM	294 nM	N#Cc1cc(-c2ccnc(NC(=O)C3(F)CC3)c2)ccc1O[C@H]1CCN(C(=O)CO)C[C@H]1F [Example 78, N-(4-(3-Cyano-4-(((3R,4S)-3-fluoro-1-(2-hydroxyacetyl)piperidin-4-yl)oxy)phenyl)pyridin-2-yl)-1-fluorocyclopropane-1-carboxamide]
> 1000 nM	> 1000 nM	N#Cc1cc(-c2ccnc(NC(=O)C3CC3)c2)ccc1CC1CCOCC1 [Example 98, N-(4-(3-cyano-4-((tetrahydro-2H-pyran-4-yl)methyl)phenyl)pyridin-2-yl)cyclopropanecarboxamide]
5.7 nM	14.3 nM	Cn1ccc([C@H]2C[C@@H]2C(=O)Nc2cc(-c3ccc(O[C@H]4CCN(C(=O)CO)CC4(F)F)c(C#N)c3)ccn2)n1 [Example 103, (1S,2S)—N-(4-(3-cyano-4-(((S)-3,3-difluoro-1-(2-hydroxyacetyl)piperidin-4-yl)oxy)phenyl)pyridin-2-yl)-2-(1-methyl-1H-pyrazol-3-yl)cyclopropane-1-carboxamide]
10.2 nM	26.3 nM	C[C@H](O)C(=O)N1CC[C@H](Oc2ccc(-c3ccnc(NC(=O)C4CC4)c3)cc2C#N)C(F)(F)C1 [Example 11, N-(4-(3-cyano-4-(((S)-3,3-difluoro-1-((S)-2 hydroxypropanoyl)piperidin-4-yl)oxy)phenyl)pyridin-2-yl)cyclopropanecarboxamide]
755 nM	331 nM	N#Cc1cc(-c2ccnc(NC(=O)C3CCCCC3)c2)ccc1OC1CCOCC1 [Example 1, N-(4-(3-cyano-4-((tetrahydro-2H-pyran-4-yl)oxy)phenyl)pyridin-2-yl)cyclohexanecarboxamide]
5.7 nM	14 nM	Cn1cc([C@H]2C[C@@H]2C(=O)Nc2cc(-c3ccc(O[C@H]4CCN(C(=O)CO)C[C@H]4F)c(C#N)c3)ccn2)cn1 [Example 126, (1S,2S)—N-(4-(3-Cyano-4-(((3R,4S)-3-fluoro-1-(2-hydroxyacetyl)piperidin-4-yl)oxy)phenyl)pyridin-2-yl)-2-(1-methyl-1H-pyrazol-4-yl)cyclopropane-1-carboxamide]
8.1 nM	> 1000 nM	COc1ccc([C@@H]2C[C@H]2C(=O)Nc2cc(-c3ccc(O[C@H]4CCN(C(=O)CO)CC4(F)F)c(C#N)c3)ncn2)cn1 [Example 113, (1R,2R)—N-(6-(3-cyano-4-(((S)-3,3-difluoro-1-(2-hydroxyacetyl)piperidin-4-yl)oxy)phenyl)pyrimidin-4-yl)-2-(6-methoxypyridin-3-yl)cyclopropane-1-carboxamide]
17 nM	26.2 nM	N#Cc1cc(-c2ccnc(NC(=O)C3C[C@@H]3F)c2)ccc1O[C@H]1CCN(C(=O)CO)C[C@H]1F (stereo partly drawn) [Example 57, (1,2-trans)-N-(4-(3-cyano-4-(((3R,4S)-3-fluoro-1-(2-hydroxyacetyl)piperidin-4-yl)oxy)phenyl)pyridin-2-yl)-2-fluorocyclopropane-1-carboxamide]
301 nM	> 1000 nM	CC(Oc1ccc(-c2cc(NC(=O)C3CC3)ncn2)cc1C#N)C(F)(F)F (stereo not shown) [Example 106, N-(6-(3-cyano-4-((1,1,1-trifluoropropan-2-yl)oxy)phenyl)pyrimidin-4-yl)cyclopropanecarboxamide]
